Assay results taken from the Kinase Knowledgebase extract (Sharma et al. 2016).

What was measured:
[1] = molecular target: MAPK14 (human) (UniProt Q16539); experiment: Inhibition of IL-1 Production in Whole Blood
[2] = molecular target: MAPK14 (human) (UniProt Q16539); experiment: Inhibition of IL-6 Production in Whole Blood
[3] = molecular target: MAPK14 (human) (UniProt Q16539); experiment: Inhibition of TNF Production in Whole Blood
[4] = molecular target: MAPK14 (human) (UniProt Q16539); experiment: Inhibition of IL-1 Production in LPS-Stimulated PBMCs; details: pbmc
[5] = molecular target: MAPK14 (human) (UniProt Q16539); experiment: Inhibition of TNF-alpha Production in LPS-Stimulated PBMCs; details: pbmc
[6] = molecular target: MAPK14 (human) (UniProt Q16539); experiment: Inhibition of MAPK14 Kinase Activity

Chain of MAPK14 (human) (Q16539 whole entry, looked up): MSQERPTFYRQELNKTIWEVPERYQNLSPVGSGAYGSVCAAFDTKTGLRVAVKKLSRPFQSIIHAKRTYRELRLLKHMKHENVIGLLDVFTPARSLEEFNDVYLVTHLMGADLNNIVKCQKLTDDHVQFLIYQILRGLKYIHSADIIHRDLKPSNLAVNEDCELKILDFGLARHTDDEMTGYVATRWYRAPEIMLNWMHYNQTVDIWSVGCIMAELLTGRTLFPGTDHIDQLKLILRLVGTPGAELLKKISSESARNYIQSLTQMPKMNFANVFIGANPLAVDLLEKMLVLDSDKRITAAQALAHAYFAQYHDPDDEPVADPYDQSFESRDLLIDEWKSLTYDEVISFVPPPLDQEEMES

Compound	IC50 [1] [nM]	IC50 [2] [nM]	IC50 [3] [nM]	IC50 [4] [nM]	IC50 [5] [nM]	IC50 [6] [nM]
NC(=O)C(c1cccc(-c2ccc(Cl)cc2Cl)n1)c1c(Cl)cccc1Cl (centres undefined)	> 500	> 500	> 500			
COc1ccc(C2=C3C=CC(Sc4ccc(F)cc4)=NN3CNC2=O)c(Cl)c1OC	> 500	> 500	> 500			
COc1ccc(-c2c(=O)ncn3nc(Sc4ccc(F)cc4)ccc23)c(Cl)c1OC	> 500	> 500	> 500	> 500	> 500	
Nc1cc(F)ccc1SC1=NN2CNC(=O)C(c3c(Cl)cccc3Cl)=C2C=C1	250 to 500	< 250	250 to 500			
Cc1cc(F)ccc1-c1cccc(N(C(N)=O)c2c(F)cccc2F)n1	250 to 500	250 to 500	250 to 500			
COc1ccc(C2=C3C=CC(Sc4ccc(F)cc4)=NN3CNC2=O)c(Cl)c1	> 500	> 500	> 500		> 500	
NC(=O)C(c1cccc(-c2ccccc2CO)n1)c1c(Cl)cccc1Cl (centres undefined)	> 500	> 500	> 500			
Cc1cc(F)ccc1-c1cccc(N(C(N)=O)c2c(Cl)cccc2Cl)n1	> 500	250 to 500	> 500			
NC(=O)C(c1cccc(-c2ccccc2CN2CCNCC2)n1)c1c(Cl)cccc1Cl (centres undefined)	> 500	> 500	> 500	> 500	> 500	
Nc1ccccc1SC1=NN2CNC(=O)C(c3c(Cl)cccc3Cl)=C2C=C1	> 500	> 500	> 500			
O=C(CN1CCOCC1)Nc1ccc(C2=C3C=CC(Sc4ccc(F)cc4)=NN3CNC2=O)c(Cl)c1	> 500	250 to 500	> 500			
O=c1ncn2nc(Sc3ccccc3)ccc2c1-c1ccccc1Cl				> 500	> 500	
NC(=O)N(c1cccc(-c2ccc(F)cc2)n1)c1c(F)cccc1F	> 500	> 500	> 500			
O=c1ncn2nc(Sc3ccccc3)ccc2c1-c1c(F)cccc1C(F)(F)F				> 500	> 500	
Cc1cccc(-c2cccc(C(C(N)=O)c3c(Cl)cccc3Cl)n2)c1 (centres undefined)	> 500	> 500	> 500		> 500	
NC(=O)C(c1cccc(-c2ccccc2)n1)c1cc(Cl)ccc1Cl (centres undefined)	> 500	> 500	> 500	100 to 500	> 500	
O=C1NCN2N=C(Sc3ccc(F)cc3)C=CC2=C1c1cc2c(cc1Cl)OCO2	250 to 500	250 to 500	> 500			

Compound	IC50 [1] [nM]	IC50 [2] [nM]	IC50 [3] [nM]	IC50 [4] [nM]	IC50 [5] [nM]	IC50 [6] [nM]
CC(C)c1ccccc1Sc1ccc2c(-c3c(Cl)cccc3Cl)c(=O)ncn2n1				> 500	> 500	
CN(C)C(=O)c1ccccc1Sc1ccc2c(-c3c(Cl)cccc3Cl)c(=O)ncn2n1				> 500	> 500	
Cc1ccc(Sc2ccc3c(-c4c(Cl)cccc4Cl)c(=O)ncn3n2)cc1C				> 500	> 500	
CN(C)C=Nc1ccc(-c2c(=O)ncn3nc(Sc4cc(F)ccc4Cl)ccc23)c(Cl)c1				100 to 500	> 500	100 to 1000
Cc1cc(Cl)ccc1SC1=NN2CNC(=O)C(c3c(Cl)cccc3Cl)=C2C=C1	> 500	250 to 500	250 to 500			
NC(=O)C(c1cccc(-c2ccccc2C=NO)n1)c1c(Cl)cccc1Cl (centres undefined)	> 500	> 500	> 500		> 500	
O=c1ncn2nc(Sc3ccccc3)ccc2c1-c1c(F)cccc1F				> 500	> 500	
Cc1cc(F)ccc1-c1cccc(N(C(N)=O)c2cc3c(cc2Cl)OCO3)n1	> 500	> 500	> 500			
Cc1ccc(Sc2ccc3c(-c4c(Cl)cccc4Cl)c(=O)ncn3n2)cc1				100 to 500	> 500	
O=C1NCN2N=C(Sc3ccccc3O)C=CC2=C1c1c(Cl)cccc1Cl	250 to 500	< 250	250 to 500			
O=C(CCl)Nc1ccc(C2=C3C=CC(Sc4ccc(F)cc4)=NN3CNC2=O)c(Cl)c1	> 500	> 500	> 500			
O=C1NCN2N=C(Sc3ccccc3Br)C=CC2=C1c1c(Cl)cccc1Cl	> 500	250 to 500	> 500			
COc1ccc(-c2cccc(C(C(N)=O)c3c(Cl)cccc3Cl)n2)cc1 (centres undefined)				> 500		
NC(=O)C(c1cccc(-c2ccccc2)n1)c1c(Cl)cccc1Cl (centres undefined)	> 500	> 500	> 500			
NC(=O)C(c1cccc(-c2cccc3ccccc23)n1)c1c(Cl)cccc1Cl (centres undefined)	> 500	> 500	> 500			
COc1ccc(-c2c(=O)ncn3nc(Sc4ccc(F)cc4)ccc23)cc1OC				> 500	> 500	100 to 1000
